Data reported in US9326973B2, “Hepatitis C virus inhibitors” (priority 2012, dated 2016).

Experiments:
Assay type in all cases: cell-based, HCV genotype 1a
[1] = test system: HCV replicon, genotype 1a Y93H variant with tyrosine 93 changed to histidine in the NS5A protein; conditions: test compound titrated in combination with a fixed 200 nM compound N47; genotype 1a Y93H replicon
Experimental: Combinations can be examined for synergistic activity using a variety of putative NS5A-targeting compounds and a variety of test compounds. […] The test compound can be chosen from compounds exemplified below, which were prepared by methods known in the art, or from others disclosed in the literature.
Similarly, BMS-790052 can be tested singly and in combination with a fixed amount of compound N47 in the HCV replicon cell based assay consisting of the genotype 1a Y93H variant with tyrosine 93 changed to histidine in the NS5A protein.

[2] = test system: HCV replicon, genotype 1a L31V variant with leucine 31 changed to valine in the NS5A protein; conditions: test compound titrated in combination with a fixed 200 nM compound N47; genotype 1a L31V replicon
[3] = test system: HCV replicon, genotype-1a variant with glutamine 30 changed to glutamate in the NS5A protein; test: microbe, parasite or virus in culture; conditions: HCV replicon genotype 1a Q30E (Q→E) variant; test compound titrated with an NS5A-targeting compound (BMS-790052 fixed at 200 nM); ranking of synergist activity
In short: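 Synergy was assessed by combining several fixed amounts of an NS5A-targeting compound with a titration of the second compound of interest.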

| SMILES | Fold-Synergistic G-1a (Y93H) [1] [Fold] | Fold-Synergistic G-1a (L31V) [2] [Fold] | Fold-Synergistic 1a (Q30E) [3] [fold] |
| --- | --- | --- | --- |
| O=C(Nc1ccc(/C=C/c2ccc(NC(=O)[C@@H]3CCCN3C(=O)Cc3ccccc3)cc2)cc1)C1CCCN1C(=O)Cc1ccccc1 (some centres unmarked) | <10 | <10 | – |
| COC(=O)N[C@H](C(=O)N1C[C@H](C)C[C@H]1c1ncc(-c2ccc(-c3ccc(-c4cnc([C@@H]5C[C@@H](C)CN5C(=O)[C@@H](NC(=O)OC)C(C)C)[nH]4)cc3)cc2)[nH]1)C(C)C | >100 | >100 | – |
| COC(=O)N[C@@H](C)C(=O)N1[C@@H]2CC[C@@H](C2)[C@H]1c1nc(-c2ccc(-c3ccc(C4=CNC([C@@H]5[C@H]6CC[C@H](C6)N5C(=O)[C@H](C)NC(=O)OC)N4)cc3)cc2)c[nH]1 (some centres unmarked) | <10 | >10 | – |
| COC(=O)N[C@H](C(=O)N1[C@@H]2C[C@@H]2C[C@H]1c1ncc(-c2ccc(C3C[C@H]3c3ccc(-c4cnc([C@@H]5C[C@H]6C[C@H]6N5C(=O)[C@@H](NC(=O)OC)C(C)C)[nH]4)cc3)cc2)[nH]1)C(C)C (some centres unmarked) | >10 | >10 | – |
| COC(=O)N[C@@H](C(=O)N1CCCC1c1ncc(C#CC#Cc2cnc([C@@H]3CCCN3C(=O)[C@H](NC(=O)OC)c3ccccc3)[nH]2)[nH]1)c1ccccc1 (some centres unmarked) | <10 | <10 | – |
| COC(=O)NC(C(=O)N1[C@@H]2C[C@@H]2C[C@H]1c1ncc(-c2cccc(-c3ccc4cc(-c5cnc([C@H]6C[C@@H]7C[C@@H]7N6C(=O)[C@@H](NC(=O)OC)C(C)C)[nH]5)ccc4c3)c2)[nH]1)C(C)C (some centres unmarked) | >10 | <10 | – |
| COC(=O)N[C@H](C(=O)N1CCC[C@H]1c1cn(-c2ccc(-c3ccc(-n4cnc([C@@H]5CCCN5C(=O)[C@@H](NC(=O)OC)C(C)C)c4)cc3)cc2)cn1)C(C)C | >10 | >10 | – |
| COC(=O)NC(C(=O)N1[C@@H]2C[C@@H]2C[C@H]1c1nc2ccc(-c3ccc4cc(-c5ccc6nc([C@@H]7C[C@H]8C[C@H]8N7C(=O)[C@@H](NC(=O)OC)C(C)C)[nH]c6c5)ccc4c3)cc2[nH]1)C(C)C (some centres unmarked) | >10 | >10 | – |
| COC(=O)NC(C(=O)N1[C@@H](C)CC[C@H]1C1=NCC(c2ccc(-c3cnc(-c4cnc([C@@H]5CC[C@H](C)N5C(=O)[C@@H](NC(=O)OC)[C@H]5C[C@@H](C)O[C@@H](C)C5)[nH]4)c4cccn34)cc2)N1)[C@H]1C[C@@H](C)O[C@@H](C)C1 (some centres unmarked) | >100 | >10 | – |
| COC(=O)N[C@H](C(=O)N1[C@@H]2C[C@@H]2C[C@H]1C(=O)Nc1ccc(C23CC4C5CC6(c7ccc(NC(=O)[C@@H]8C[C@H]9C[C@H]9N8C(=O)[C@@H](NC(=O)OC)C(C)C)cc7)CC4C(C2)C(C6)C5C3)cc1)C(C)C | <10 | <10 | – |
| COC(=O)N[C@@H](C(=O)N1CCC[C@H]1c1ncc(-c2ccc(-c3ccc(-c4cnc([C@@H]5CCCN5C(=O)[C@H](NC(=O)OC)c5ccccc5)[nH]4)cc3)cc2)[nH]1)c1ccccc1 | – | <10 | – |
| O=C(Nc1ccc(/C=C/c2ccc(NC(=O)[C@@H]3CCCN3C(=O)Cc3cccnc3)nc2)cn1)C1CCCN1C(=O)Cc1cccnc1 (some centres unmarked) | <10 | <10 | – |
| COC(=O)N[C@H](C(=O)N1CCC[C@H]1c1nc2cc(C#Cc3ccc4[nH]c([C@@H]5CCCN5C(=O)[C@@H](NC(=O)OC)C(C)C)nc4c3)ccc2[nH]1)C(C)C | <10 | – | – |
| CN(C)[C@@H](C(=O)N1CCCC1c1cnc(-c2ccc3nc([C@@H]4CCCN4C(=O)[C@@H](c4ccccc4)N(C)C)[nH]c3c2)o1)c1ccccc1 (some centres unmarked) | <10 | <10 | – |
| CC(C)(C)[C@H](NC(=O)C1(C(F)F)CCCCO1)c1nc(-c2ccc(-c3ccc(-c4c[nH]c([C@@H](NC(=O)C5(C(F)F)CCCCO5)C(C)(C)C)n4)cc3)cc2)c[nH]1 (some centres unmarked) [Compound P-179] | – | – | >100 |
| CC(C)(C)[C@H](NC(=O)C1CCC(C(F)F)CC1)c1nc(-c2ccc(-c3ccc(-c4c[nH]c([C@@H](NC(=O)C5CCC(C(F)F)CC5)C(C)(C)C)n4)cc3)cc2)c[nH]1 (some centres unmarked) [Compound Y-71] | – | – | >100 |
| Cc1cc(-c2ccc(-c3c[nH]c([C@@H](NC(=O)C4CC(F)(F)C4)C(C)C)n3)cc2)ccc1-c1c[nH]c([C@@H](NC(=O)C2CC(F)(F)C2)C(C)C)n1 [Compound N-78] | – | – | >100 |

| SMILES | Fold-Synergistic G-1a (Y93H) [1] [Fold] | Fold-Synergistic G-1a (L31V) [2] [Fold] | Fold-Synergistic 1a (Q30E) [3] [fold] |
| --- | --- | --- | --- |
| C[C@]1(C(=O)N2CCC[C@H]2c2ncc(-c3ccc(-c4ccc(-c5cnc([C@@H]6CCCN6C(=O)[C@@]6(C)CCC(F)(F)CO6)[nH]5)cc4)cc3)[nH]2)CCC(F)(F)CO1 [Compound P-186] | – | – | <10 |
| CC(C)CC(=O)NC1(c2nc(-c3ccc(-c4ccc(-c5c[nH]c(C6(NC(=O)CC(C)C)CCCCC6)n5)cc4)cc3)c[nH]2)CCCCC1 [Compound N-24] | – | – | <10 |
| CCCCCC(=O)N1CCC[C@H]1c1ncc(-c2ccc(-c3ccc(-c4cnc([C@@H]5CCCN5C(=O)CCCCC)[nH]4)cc3)cc2)[nH]1 [Compound S-181] | – | – | >10 |
| COC(=O)N[C@H](C(=O)N1CCC[C@H]1C1=C(c2ccc(C#Cc3ccc4[nH]c([C@@H]5CCCN5C(=O)[C@@H](NC(=O)OC)C(C)C)nc4c3)cc2)NCN1)C(C)C | >10 | <10 | – |
| CC(C)(C)[C@H](O)C(=O)N[C@H](c1nc(-c2ccc(-c3ccc(-c4c[nH]c([C@@H](NC(=O)[C@@H](O)C(C)(C)C)C(C)(C)C)n4)cc3)cc2)c[nH]1)C(C)(C)C [Compound L-76] | – | – | >100 |
| COC(=O)N[C@H](C(=O)N1C(c2nc3ccc4cc(C#Cc5ccc6c(ccc7nc([C@@H]8CC9CC9N8C(=O)[C@@H](NC(=O)OC)C(C)C)[nH]c76)c5)ccc4c3[nH]2)C[C@H]2C[C@H]21)C(C)C (some centres unmarked) | >100 | <10 | – |
| CC(C)(C)[C@H](NC(=O)[C@@H]1CCCN1CC(F)(F)F)c1nc(-c2ccc(-c3ccc(-c4c[nH]c([C@@H](NC(=O)[C@@H]5CCCN5CC(F)(F)F)C(C)(C)C)n4)cc3)cc2)c[nH]1 [Compound L-52] | – | – | >100 |
| CC(C)(C)[C@H](NC(=O)C1CCCCC1c1ccccc1)c1nc(-c2ccc(-c3ccc(-c4c[nH]c([C@@H](NC(=O)C5CCCCC5c5ccccc5)C(C)(C)C)n4)cc3)cc2)c[nH]1 (some centres unmarked) [Compound S-269] | – | – | >100 |
| O=C(c1ccccn1)N1CCC[C@H]1c1ncc(-c2ccc(-c3ccc(-c4cnc([C@@H]5CCCN5C(=O)c5ccccn5)[nH]4)cc3)cc2)[nH]1 [Compound S-184] | – | – | <10 |
| CC1(C)CC(C(=O)N[C@H](c2nc(-c3ccc(-c4ccc(-c5c[nH]c([C@@H](NC(=O)C6CC(C)(C)C6)C(C)(C)C)n5)cc4)cc3)c[nH]2)C(C)(C)C)C1 [Compound L-53] | – | – | >100 |
| CC(C)CC(=O)N[C@@H](Cc1ccc2ccccc2c1)c1nc(-c2ccc(-c3ccc(-c4c[nH]c([C@H](Cc5ccc6ccccc6c5)NC(=O)CC(C)C)n4)cc3)cc2)c[nH]1 [Compound P-8] | – | – | <10 |
| CC1([C@H](NC(=O)[C@@]2(C)CC(F)(F)CO2)c2nc(-c3ccc(-c4ccc(-c5c[nH]c([C@@H](NC(=O)[C@@]6(C)CC(F)(F)CO6)C6(C)CC6)n5)cc4)cc3)c[nH]2)CC1 [Compound Y-83] | – | – | >100 |
| CN(C)[C@@H](C(=O)N1CCCC[C@H]1c1ncc(-c2ccc(-c3ccc(-c4cnc([C@@H]5CCCCN5C(=O)[C@@H](c5ccccc5)N(C)C)[nH]4)cc3)cc2)[nH]1)c1ccccc1 | <10 | – | – |
| COC(=O)N[C@H](C(=O)NC(C)(C)c1nc(-c2ccc(-c3ccc(-c4c[nH]c(C(C)(C)NC(=O)[C@@H](NC(=O)OC)C(C)C)n4)cc3)cc2)c[nH]1)C(C)C [Compound N-25] | – | – | <10 |
| O=C(CC(F)(F)F)N1CCC[C@H]1c1ncc(-c2ccc(-c3ccc(-c4cnc([C@@H]5CCCN5C(=O)CC(F)(F)F)[nH]4)cc3)cc2)[nH]1 [Compound S-193] | – | – | <10 |
| Cn1cc(C(=O)N2CCC[C@H]2c2ncc(-c3ccc(-c4ccc(-c5cnc([C@@H]6CCCN6C(=O)c6cn(C)c7ccccc67)[nH]5)cc4)cc3)[nH]2)c2ccccc21 [Compound S-142] | – | – | >10 |
